Reference: patent US20080220101A1, “COMPOSITIONS OF EXTRACTS OF ALOE FOR ORAL ADMINISTRATION” (priority 2007, published 2008)
Marks after values point to notes of the source that are not given here. Residues, ends and D or L forms follow the SMILES beside them.

Experiments:
Type in all cases: in vivo
Spodoptera littoralis = assay: Binary choice glass-fiber disc feeding bioassay (Feeding Index); details: for Feeding response in words, in combination with glucose: glucose 0.05M; for Feeding response in words, in combination with glucose / Feeding response in words, in combination with sucrose: 100, 1000 and 10,000 ppm; for Feeding Index: n = 15; for Feeding response in words, in combination with sucrose: sucrose 0.05M
Procedure: All experiments were done on the final stage larvae of Spodoptera littoralis. Prior to the experiment, the insects were deprived of food for 2 hours. This has been calculated as a period when most insects would commence feeding. Thus, the food from the previous meal has started to pass into and through the gut. The initial experiment investigated whether the insects could “taste” the plant preparations or extracts and whether they stimulated or deterred feeding. […] A negative value indicates a phagostimulant and a positive value indicates an appetite suppressant. Experiments are usually repeated with between 10-20 insects and the data are analysed using the Wilcoxon matched pairs test. A series of controls were used at the start of the experiment to illustrate the difference in the response of the larvae to sucrose and glucose both tested at 0.05M. Results have been presented as means.

[1] = tested on: larvae of Spodoptera littoralis; assay: Behavioral response of cannulated insects to glucose (latency, meal duration, time to second meal); details: glucose treated disc, solvent water
Procedure: Material and methods. Final stage larvae were removed from food and after 2 hours, they were cannulated via the oral cavity with […] of a test solution, with water used as a control. The extracts were tested at 10,000 ppm, 1,000 ppm and 100 ppm. The insects were then placed in a Petri dish with a glucose treated glass-fiber disc. The time taken for the insects to start a meal (latency), the duration of a meal (meal duration) and the time taken to take the second meal were recorded. This provides information about whether the extracts once consumed would delay feeding, whether the extracts would alter the duration of a meal once it had started, and whether the time to the second meal would be altered. […] The time to the start of a meal was extended, when compared with the water control, after cannulation with Aloe and Ginseng. Aloe acted as stimulants in the glass-fiber disc bioassays, whereas Ginseng was a potent suppressant. Thus, the Ginseng could be having a negative activity on time to feed, whereas the response to Aloe could be because of a “positive” response. The end effect is the same in that both groups caused an increase in the latency to feed. […] None of the extracts influenced the duration of the first recorded meal.

[2] = tested on: medial sensilla of Spodoptera littoralis larvae; assay: Electrophysiology: neural response of the medial sensilla after cannulation; details: for Impulses per second from the medial styloconic sensilla, stimulus C: stimulus KCl (0.05M); for Impulses per second from the medial styloconic sensilla, stimulus P: stimulus amino acid mixture; for Impulses per second from the medial styloconic sensilla, stimulus G: stimulus glucose (0.05M); for Impulses per second from the medial styloconic sensilla, stimulus S: stimulus sucrose (0.05M)
Source text: Insects use sensilla on their mouthparts to taste their food. These sensilla contain neurones that respond to compounds in their food. An electrophysiological bioassay has been developed to record the neural impulses from the four neurones in each sensilla. […] Previous experiments have shown that the responsiveness of the insects can be influenced by the diet an insect has been reared on and previous exposure to a compound. The physiological condition of the insect can also influence the responsiveness of these neurones. In these experiments, we […] classify the neurones down to specific neurones but this requires some further experiments not undertaken in this study. […] Each larva was tested with KCl (C=0.05M) as a control, sucrose (S=0.05M), glucose (G=0.05M) and amino acid mix (P=0.05M). A set of experiments were undertaken on a control non-cannulated group of insects. […] Prior to the experiment, the insects had been standardized as in the behavioral experiments.

[3] = in combination with glucose 0.05M, extract 100 ppm
[4] = in combination with glucose 0.05M, extract 1,000 ppm
[5] = in combination with glucose 0.05M, extract 10,000 ppm
[6] = in combination with sucrose 0.05M, extract 100 ppm
[7] = in combination with sucrose 0.05M, extract 1,000 ppm
[8] = in combination with sucrose 0.05M, extract 10,000 ppm
[9] = 30 min after cannulation at 1000 ppm
[10] = 1 h after cannulation at 1000 ppm

Compound | Feeding response in words, in combination with glucose (Spodoptera littoralis) | Feeding Index (Spodoptera littoralis; [3]) | Feeding Index (Spodoptera littoralis; [4]) | Feeding Index (Spodoptera littoralis; [5]) | Feeding Index (Spodoptera littoralis; [6]) | Feeding Index (Spodoptera littoralis; [7]) | Feeding Index (Spodoptera littoralis; [8]) | Feeding response in words, in combination with sucrose (Spodoptera littoralis) | Latency ([1]; concentration 0.1k (100 ppm)) | Meal duration ([1]; concentration 0.1k (100 ppm)) | Time to 2nd meal ([1]; concentration 0.1k (100 ppm)) | Latency ([1]; concentration 1k (1,000 ppm)) | Meal duration ([1]; concentration 1k (1,000 ppm)) | Time to 2nd meal ([1]; concentration 1k (1,000 ppm)) | Latency ([1]; concentration 10k (10,000 ppm)) | Meal duration ([1]; concentration 10k (10,000 ppm)) | Time to 2nd meal ([1]; concentration 10k (10,000 ppm)) | Impulses per second from the medial styloconic sensilla, stimulus C [2, 9] | Impulses per second from the medial styloconic sensilla, stimulus P [2, 9] | Impulses per second from the medial styloconic sensilla, stimulus G [2, 9] | also measured
COC(=O)[C@H](Cc1ccccc1)NC(=O)[C@@H](N)CC(=O)O [Aspartame] (H-Asp-Phe-OMe) | stimulated feeding at lower concentrations | −25* % | −31* % | −24% | −15% | 14% | 15% | not significant | 21 min | 17 min | 15 min | 24 min | 12 min | 15 min | 20 min | 12 min | 17 min | 10 impulses per second | 24 impulses per second | 45 impulses per second | Impulses per second from the medial styloconic sensilla, stimulus S [2, 9]: 57 impulses per second; Impulses per second from the medial styloconic sensilla, stimulus C [2, 10]: 12 impulses per second; Impulses per second from the medial styloconic sensilla, stimulus P [2, 10]: 24 impulses per second; Impulses per second from the medial styloconic sensilla, stimulus G [2, 10]: 25 impulses per second; Impulses per second from the medial styloconic sensilla, stimulus S [2, 10]: 48 impulses per second
O=C1NS(=O)(=O)c2ccccc21 [Saccharin] | stimulated feeding at lower concentrations | −24* % | −25* % | −18% | −16% | −5% | 5% | not significant | 24 min | 16 min | 11 min | 24 min | 14 min | 18 min | 25 min | 14 min | 18 min | 9 impulses per second | 29 impulses per second | 45 impulses per second | Impulses per second from the medial styloconic sensilla, stimulus S [2, 9]: 65 impulses per second; Impulses per second from the medial styloconic sensilla, stimulus C [2, 10]: 15 impulses per second; Impulses per second from the medial styloconic sensilla, stimulus P [2, 10]: 47 impulses per second; Impulses per second from the medial styloconic sensilla, stimulus G [2, 10]: 28 impulses per second; Impulses per second from the medial styloconic sensilla, stimulus S [2, 10]: 48 impulses per second
OC[C@H]1O[C@@](CO)(O[C@H]2O[C@H](CO)[C@@H](O)[C@H](O)[C@H]2O)[C@@H](O)[C@@H]1O [Sucrose] |  |  |  |  |  |  |  |  |  |  |  |  |  |  |  |  |  |  |  |  | Feeding Index (Spodoptera littoralis; control disc sucrose 0.05M versus treatment disc sucrose 0.05M, 18 hours): 10.7%; Feeding Index (Spodoptera littoralis; control disc sucrose 0.05M versus untreated treatment disc, 18 hours): 46.3* %; Phagostimulant potency in words (Spodoptera littoralis; sucrose versus glucose, both 0.05M): more potent phagostimulant to S. littoralis than glucose
